Experimental data taken from US9751909B2, “Synthesis and uses of nucleic acid compounds with conformationally restricted monomers” (Marina Biotech, Inc., priority 2011, dated 2017).

Assays:
[1] = test system: microRNA-122; test: De-repression of downstream mRNAs of microRNA-122 in mouse liver by CRN-containing antimir; type: in vivo, mouse (BALB/c)
Description: The CRN-containing antimir CRN-Antimir-122-8a was synthesized by the methods of this invention. MicroRNA-122 is an miRNA shown to be liver-specific and involved in lipid metabolism and possibly hepatitis C virus replication. MicroRNA-122 regulates various downstream mRNAs. CRN-Antimir-122-8a is 16-mer oligonucleotide complementary to the 5′ end of microRNA-122 that can silence microRNA-122 and de-repress its downstream targets.
Liver and spleen were harvested.
The end points determined were expression of downstream genes AldoA (Aldolase A), P4H4 (Prolyl 4-hydroxylase gene), and SLC7A1 (Solute carrier family 7). Negative control was a mismatched Antimir-122 sequence.

[2] = Tolerability in mice: body weight, clinical signs, spleen weight, serum chemistry; settings: BALB/c mice
Description: Treatment groups (n=5) were injected intravenously at a 10 mg/kg dose with a dosing schedule of Q1d×3 (every day for three consecutive days). Necropsy was performed at 24 h after the last dose. Body weights and clinical signs were monitored during the course of the study. Liver and spleen were harvested.

[3] = 8-week old BALB/c mice, 10 mg/kg intravenously Q1d×3, necropsy 24 h after last dose

## crnm5CsdCsdAscrnTscrnTsdGscrnTscrnm5CsdAscrnm5CsdAsdCsdTscrnm5Cscrnm5CsdA (antisense CCATTGTCACACTCCA; CRN nucleotides, phosphorothioate linkages; (1)..(16) Phosphorothioate linkage between nucleotides; modified_base (1)..(1) Conformationally restricted 5′-methyl nucleomonomer; modified_base (2)..(3) deoxy-nucleotide; modified_base (4)..(5) Conformationally restricted nucleomonomer; modified_base (6)..(6) deoxy-nucleotide; modified_base (7)..(7) Conformationally restricted nucleomonomer; modified_base (8)..(8) Conformationally restricted 5′-) [CRN-Antimir-122-8a]
[1]; [3]
  de-repression in liver AldoA mRNA relative to buffer control: Up to 2.5 fold
  de-repression in liver P4H4 mRNA relative to buffer control: Up to 1.5 fold
  de-repression in liver SLC7A1 mRNA relative to buffer control: Up to 1.3 fold
[1]; mouse model, result in words
  de-repression of downstream genes ALDOA, SLC7A, P4H4 in the mouse model: demonstrated de-repression
[2]; 10 mg/kg intravenously Q1d×3
  alterations in liver and kidney enzymes: No alterations
  body weight loss after dosing: No body weight loss
  other serum chemistry parameters: within expected normal levels
  tolerability: well tolerated
[2]; 10 mg/kg intravenously Q1d×3, necropsy 24 h after last dose
  spleen weights relative to buffer control: unaltered
